IC50 data for 21 compounds are collected here from patent US10479795B2 (Incyte Corporation, priority 2016, dated 2019).

Structures can show the parent of a compound that is named as a salt. Where two headings read alike, the source gives them in different places.

Experiment [1] deals with Phosphorylated Ribosomal Protein S6 (RPS6). Kind of experiment: THP-1 RPS6 ELISA Assay. It is filed as cell-based, Human. Particulars: THP-1 cells, read-out: PI3Kγ_THP1_RPS6_ELISA IC50. The procedure: To measure the Phosphorylated Ribosomal Protein S6 (RPS6) in cell lysates, THP-1 cells (Human Acute Monocytic Leukemia) are purchased from ATCC (Manassas, Va.) and maintained in RPMI with 10% FBS (Gibco/Life Technologies, Carlsbad, Calif.). For the assay, THP-1 cells are serum starved overnight in RPMI, then plated in RPMI (2×10^5 cells/well in 90 μL) into 96-well flat-bottom tissue culture treated plates (Corning, Corning, N.Y.), in the presence or absence of a concentration range of test compounds. Covered plates are incubated for 2 hours at 37° C., 5% CO2 then treated with or without 10 nM MCP-1 (MYBioSource, San Diego, Calif.) for 15 minutes at 37° C., 5% CO2. Plates are centrifuged at 1600 RPM and supernatants are removed. Cells are lysed in Lysis Buffer (Cell Signaling, Danvers, Mass.) with Protease Inhibitor (Calbiochem/EMD, Germany), PMSF (Sigma, St Louis Mo.), HALTS (Thermo Fisher, Rockford, Ill.) for 30 min on wet ice. Cell lysates are frozen at −80° C. before testing. The lysates are tested in the Human/Mouse/Rat Phospho-RPS6 ELISA (R&D Systems, Inc. Minn, Minn.). The plate is measured using a microplate reader (SpectraMax M5 —Molecular Devices, LLC Sunnyvale, Calif.) set to 450 nm with a wavelength correction of 540. IC50 determination is performed by fitting the curve of inhibitor percent inhibition versus the log of the inhibitor concentration using the GraphPad Prism 5.0 software.
A general note: An ELISA detects its analyte on a solid surface through an enzyme-linked reagent.

The target in experiment [2] is PI3Kδ (p110δ/p85α) Recombinant Human Protein (Homo sapiens (Human), UniProt O00329). Kind of experiment: PI3Kδ Scintillation Proximity Assay. In kind it is biochemical. In outline:
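Recombinant human p110δ/p85α (3.4 nM) with 20 μM PIP2 and 2 μM ATP plus [γ-33P]ATP, in 20 mM MOPS pH 6.7, 10 mM MgCl2, 5 mM DTT, 0.03% CHAPS, 2% DMSO; 120 min at room temperature. Product captured on WGA SPA beads, scintillation counted; IC50 from percent-of-control curves.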
(SPA uses beads or plates that emit light when radiolabelled molecules are held near them.)

Experiment [3] has as its target PI3Kγ (p110γ) Recombinant Human Protein (Homo sapiens (Human), UniProt P48736). In words: PI3K-γ Scintillation Proximity Assay. It is filed as biochemical. The settings on record: read-out: PI3Kγ IC50. The method in brief: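 Recombinant human p110γ assayed at room temperature in 20 mM MOPS pH 6.7, 10 mM MgCl2, 5 mM DTT, 0.03% CHAPS, 2% DMSO, with 20 μM PIP2 and 2 μM ATP plus [γ-33P]ATP. Product captured on WGA SPA beads overnight and counted; IC50 fitted from % of solvent-control activity versus log inhibitor concentration.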

Sequence of PI3Kδ (p110δ/p85α) Recombinant Human Protein (O00329 whole entry): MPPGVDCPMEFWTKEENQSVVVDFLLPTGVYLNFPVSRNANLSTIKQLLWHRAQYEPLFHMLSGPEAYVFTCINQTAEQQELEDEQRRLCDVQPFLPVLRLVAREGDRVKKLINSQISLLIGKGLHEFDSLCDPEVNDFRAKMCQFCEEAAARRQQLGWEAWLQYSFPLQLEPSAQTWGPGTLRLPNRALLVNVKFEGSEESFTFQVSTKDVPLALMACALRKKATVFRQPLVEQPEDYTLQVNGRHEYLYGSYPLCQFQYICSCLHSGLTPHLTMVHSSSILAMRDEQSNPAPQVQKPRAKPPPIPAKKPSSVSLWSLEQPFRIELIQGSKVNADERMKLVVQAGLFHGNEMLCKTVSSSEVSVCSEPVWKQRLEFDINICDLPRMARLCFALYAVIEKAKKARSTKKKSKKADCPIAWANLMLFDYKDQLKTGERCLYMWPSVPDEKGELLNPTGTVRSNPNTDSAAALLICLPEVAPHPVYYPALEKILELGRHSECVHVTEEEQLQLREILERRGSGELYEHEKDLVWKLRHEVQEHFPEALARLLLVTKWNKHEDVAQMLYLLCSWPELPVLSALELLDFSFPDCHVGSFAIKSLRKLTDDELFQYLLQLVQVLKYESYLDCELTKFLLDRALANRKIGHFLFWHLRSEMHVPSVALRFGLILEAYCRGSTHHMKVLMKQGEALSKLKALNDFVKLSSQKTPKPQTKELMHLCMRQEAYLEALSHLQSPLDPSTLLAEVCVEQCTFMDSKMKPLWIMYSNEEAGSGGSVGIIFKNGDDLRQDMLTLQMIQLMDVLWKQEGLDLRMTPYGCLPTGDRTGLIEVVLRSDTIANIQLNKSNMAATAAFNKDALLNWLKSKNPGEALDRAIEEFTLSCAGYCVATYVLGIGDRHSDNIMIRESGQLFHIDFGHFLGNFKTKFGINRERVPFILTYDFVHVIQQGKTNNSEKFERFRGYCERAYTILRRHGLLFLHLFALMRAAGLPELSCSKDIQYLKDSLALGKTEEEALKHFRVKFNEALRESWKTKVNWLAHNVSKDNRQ
Sequence of PI3Kδ (p110δ/p85α) Recombinant Human Protein (P27986 whole entry partner): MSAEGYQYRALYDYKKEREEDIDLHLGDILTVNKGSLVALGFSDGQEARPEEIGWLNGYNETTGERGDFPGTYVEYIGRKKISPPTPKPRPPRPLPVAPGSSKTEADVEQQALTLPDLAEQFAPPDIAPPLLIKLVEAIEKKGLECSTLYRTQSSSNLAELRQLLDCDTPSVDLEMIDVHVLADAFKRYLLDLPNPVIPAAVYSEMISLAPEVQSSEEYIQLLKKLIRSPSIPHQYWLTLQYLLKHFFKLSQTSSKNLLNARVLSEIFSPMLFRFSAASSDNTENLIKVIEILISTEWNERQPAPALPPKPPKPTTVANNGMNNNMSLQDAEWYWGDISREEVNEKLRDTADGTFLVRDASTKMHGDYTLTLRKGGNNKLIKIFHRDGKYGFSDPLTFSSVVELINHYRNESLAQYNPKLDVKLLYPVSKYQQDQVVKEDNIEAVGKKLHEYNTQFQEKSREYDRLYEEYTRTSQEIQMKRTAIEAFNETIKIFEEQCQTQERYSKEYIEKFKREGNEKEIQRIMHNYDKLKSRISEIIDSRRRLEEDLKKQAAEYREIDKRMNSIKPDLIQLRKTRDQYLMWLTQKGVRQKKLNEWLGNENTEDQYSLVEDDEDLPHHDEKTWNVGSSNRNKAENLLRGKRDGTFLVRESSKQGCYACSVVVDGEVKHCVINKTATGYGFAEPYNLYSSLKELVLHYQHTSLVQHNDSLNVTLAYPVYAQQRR
Sequence of PI3Kγ (p110γ) Recombinant Human Protein (P48736 whole entry): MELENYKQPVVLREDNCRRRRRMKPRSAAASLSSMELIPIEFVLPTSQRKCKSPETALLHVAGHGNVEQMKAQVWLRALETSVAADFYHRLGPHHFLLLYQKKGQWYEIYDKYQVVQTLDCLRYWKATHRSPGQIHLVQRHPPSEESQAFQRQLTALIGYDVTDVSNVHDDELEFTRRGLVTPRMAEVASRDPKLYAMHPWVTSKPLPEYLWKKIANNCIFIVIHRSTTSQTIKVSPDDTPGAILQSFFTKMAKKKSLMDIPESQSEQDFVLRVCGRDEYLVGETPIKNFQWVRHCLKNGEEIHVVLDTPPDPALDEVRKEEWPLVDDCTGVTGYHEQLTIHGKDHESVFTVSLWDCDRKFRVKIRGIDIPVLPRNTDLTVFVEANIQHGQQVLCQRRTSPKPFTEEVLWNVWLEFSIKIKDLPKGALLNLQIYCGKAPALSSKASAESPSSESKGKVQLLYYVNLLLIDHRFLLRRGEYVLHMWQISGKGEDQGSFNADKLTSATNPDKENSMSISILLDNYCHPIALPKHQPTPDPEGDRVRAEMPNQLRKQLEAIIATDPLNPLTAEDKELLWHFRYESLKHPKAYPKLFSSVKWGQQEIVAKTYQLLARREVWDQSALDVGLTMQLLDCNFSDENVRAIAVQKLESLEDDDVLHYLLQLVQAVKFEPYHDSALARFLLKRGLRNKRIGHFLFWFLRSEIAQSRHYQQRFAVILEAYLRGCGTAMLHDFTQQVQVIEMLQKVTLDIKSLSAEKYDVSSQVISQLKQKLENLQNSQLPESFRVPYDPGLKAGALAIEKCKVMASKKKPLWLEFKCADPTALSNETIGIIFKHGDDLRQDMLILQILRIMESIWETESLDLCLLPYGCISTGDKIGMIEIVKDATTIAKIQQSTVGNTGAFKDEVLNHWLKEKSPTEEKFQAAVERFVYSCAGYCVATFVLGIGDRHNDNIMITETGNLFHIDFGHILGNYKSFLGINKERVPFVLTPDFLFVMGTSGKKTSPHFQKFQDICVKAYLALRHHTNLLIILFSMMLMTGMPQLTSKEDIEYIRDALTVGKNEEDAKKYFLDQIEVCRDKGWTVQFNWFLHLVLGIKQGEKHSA

As for “3-(4-Amino-2-(trifluoromethyl)imidazo[2,1- f][1,2,4]triazin-7-yl)-N-(3- (hydroxymethyl)bicyclo[2.1.1]pentan-1-yl)-4-(methyl- d3)benzenesulfonamide trifluoroacetate salt [Example 420]”, the IC50 (commonly the concentration that gives 50% inhibition) in experiment [1] is 100 to 500 nM; in experiment [2], 100 to 500 nM; in experiment [3], less than 100 nM.

Regarding “3-[8-Amino-6-(2-fluoro-6-methoxyphenyl)imidazo[1,2-a]pyrazin-3-yl]-N-(trans-4-hydroxycyclohexyl)-4-methylbenzenesulfonamide [Example 34]”, the values for the IC50 in experiment [1], in experiment [2] and in experiment [3] were 100 to 500 nM, 100 to 500 nM and less than 100 nM, respectively.

Turning to “3-{8-Amino-6-[3-(methylsulfonyl)phenyl]imidazo[1,2-a]pyrazin-3-yl}-N-(trans-4-hydroxycyclohexyl)-4-methylbenzenesulfonamide [Example 33]”, the results for the IC50 in experiment [1], in experiment [2] and in experiment [3] were 500 to 1000 nM, 100 to 500 nM and less than 100 nM, respectively.

Take “5-(4-Amino-2-(trifluoromethyl)imidazo[1,2- f][1,2,4]triazin-7-yl)-2-chloro-N-(4- (hydroxymethyl)bicyclo[1.1.1]hexan-1- yl)benzenesulfonamide [Example 419]”: the results for the IC50 in experiment [1] and in experiment [3] were more than 1000 nM and less than 100 nM, respectively.

In the case of `Cc1ccc(S(=O)(=O)NC23CCC(C(C)O)(CC2)OC3)cc1-c1cnc2c(N)ncnn12` (racemic) [Example 432, 3-(4-Aminoimidazo[1,2-f][1,2,4]triazin-7-yl)-N-(1-(1-hydroxyethyl)-2-oxabicyclo[2.2.2]octan-4-yl)-4-methylbenzenesulfonamide trifluoroacetate salt (racemic)], the IC50 is 100 to 500 nM in experiment [1] (Homo sapiens), 100 to 500 nM in experiment [2] and less than 100 nM in experiment [3].

Consider `Cc1ccc(S(=O)(=O)NC23CCC(C(O)C(F)(F)F)(CC2)OC3)cc1-c1cnc2c(N)ncnn12` (racemic) [Example 437, 3-(4-Aminoimidazo[1,2-f][1,2,4]triazin-7-yl)-4-methyl-N-(1-(2,2,2-trifluoro-1-hydroxyethyl)-2-oxabicyclo[2.2.2]octan-4-yl)benzenesulfonamide trifluoroacetate salt (racemic)], for which the IC50 in experiment [1] (Homo sapiens) is 100 to 500 nM; in experiment [2] it was 100 to 500 nM; in experiment [3] it was less than 100 nM.

`Cc1ccc(S(=O)(=O)NC23CCC(C(O)c4ccccc4)(CC2)OC3)cc1-c1cnc2c(N)ncnn12` (racemic) [Example 438, 3-(4-Aminoimidazo[1,2-f][1,2,4]triazin-7-yl)-N-(1-(hydroxy(phenyl)methyl)-2-oxabicyclo[2.2.2]octan-4-yl)-4-methylbenzenesulfonamide trifluoroacetate salt (racemic)]: the IC50 in experiment [1] (Homo sapiens) is less than 100 nM; in experiment [2] it was 100 to 500 nM; in experiment [3], less than 100 nM.

As to `Cc1ccc(S(=O)(=O)N2C[C@@H]3CCO[C@@H]3C2)cc1-c1cnc2c(N)ncnn12` (relative stereo) [Example 211, 7-(5-((cis-Hexahydro-5H-furo[2,3-c]pyrrol-5-yl)sulfonyl)-2-methylphenyl)imidazo[2,1-f][1,2,4]triazin-4-amine], the values for the IC50 in experiment [1] (Homo sapiens), in experiment [2] and in experiment [3] were 500 to 1000 nM, 500 to 2000 nM and less than 100 nM, respectively.

For `Cc1c(F)cc(S(=O)(=O)NCC(C)(C)O)cc1-c1cnc2c(N)nc(CO)nn12` [Example 470, 3-(4-Amino-2-(hydroxymethyl)imidazo[2,1-f][1,2,4]triazin-7-yl)-5-fluoro-N-(2-hydroxy-2-methylpropyl)-4-methylbenzenesulfonamide], the IC50 in experiment [2] was 500 to 2000 nM; in experiment [3], less than 100 nM.

As to `Cc1cnccc1-c1cn2c(-c3cc(S(C)(=O)=O)ccc3C)cnc2c(N)n1` [Example 473, 3-(2-Methyl-5-(methylsulfonyl)phenyl)-6-(3-methylpyridin-4-yl)imidazo[1,2-a]pyrazin-8-amine trifluoroacetate], the IC50 was 500 to 2000 nM in experiment [2] and less than 100 nM in experiment [3].

Regarding `COc1cccc(F)c1-c1cn2c(-c3cc(S(C)(=O)=O)ccc3C)cnc2c(N)n1` [Example 478, 6-(2-Fluoro-6-methoxyphenyl)-3-(2-methyl-5-(methylsulfonyl)phenyl)imidazo[1,2-a]pyrazin-8-amine trifluoroacetate], the 50% inhibitory concentration (IC50) is 500 to 2000 nM in experiment [2] and 100 to 500 nM in experiment [3].

Take `Cc1ccc(S(C)(=O)=O)cc1-c1cnc2c(N)nc(-c3ccnn3C)cn12` [Example 479, 6-(1-Methyl-1H-pyrazol-5-yl)-3-(2-methyl-5-(methylsulfonyl)phenyl)imidazo[1,2-a]pyrazin-8-amine trifluoroacetate]: the IC50 was 100 to 500 nM in experiment [2] and less than 100 nM in experiment [3].

Take `Cc1ccc(S(C)(=O)=O)cc1-c1cnc2c(N)nc(-c3ccc(C(=O)N(C)C)cc3F)cn12` [Example 480, 4-(8-Amino-3-(2-methyl-5-(methylsulfonyl)phenyl)imidazo[1,2-a]pyrazin-6-yl)-3-fluoro-N,N-dimethylbenzamide]: the IC50 in experiment [2] is 100 to 500 nM; in experiment [3], less than 100 nM.

With `Cc1ccc(S(C)(=O)=O)cc1-c1cnc2c(N)nc(-c3ccc(CN4CCCC4)cc3F)cn12` [Example 487, 6-(2-Fluoro-4-(pyrrolidin-1-ylmethyl)phenyl)-3-(2-methyl-5-(methylsulfonyl)phenyl)imidazo[1,2-a]pyrazin-8-amine], the half-maximal inhibitory concentration (IC50) in experiment [2] was 100 to 500 nM; in experiment [3] it was less than 100 nM.

In the case of `Cc1ccc(S(=O)(=O)C[C@H]2CC[C@@H](O)CC2)cc1-c1cnc2c(N)ncnn12` [Example 498, cis-4-(((3-(4-Aminoimidazo[2,1-f][1,2,4]triazin-7-yl)-4-methylphenyl)sulfonyl)methyl)cyclohexan-1-ol], the IC50 in experiment [2] is 500 to 2000 nM; in experiment [3], less than 100 nM.

In the case of `Cc1ccc(S(=O)(=O)CC2CC2)cc1-c1cnc2c(N)ncnn12` [Example 499, 7-(5-((Cyclopropylmethyl)sulfonyl)-2-methylphenyl)imidazo[2,1-f][1,2,4]triazin-4-amine], the figures for the IC50 in experiment [2] and in experiment [3] were 500 to 2000 nM and 100 to 500 nM, respectively.

In the case of `COC[C@H]1CCCN1C(=O)C1CCCN(S(=O)(=O)c2ccc(C)c(-c3cnc4c(N)nc(C(F)(F)F)cn34)c2)C1` (stereo partly drawn) [Example 511, (1-((3-(8-Amino-6-(trifluoromethyl)imidazo[1,2-a]pyrazin-3-yl)-4-methylphenyl)sulfonyl)piperidin-3-yl)((R)-2-(methoxymethyl)pyrrolidin-1-yl)methanone], the values for the IC50 in experiment [2] and in experiment [3] were more than 2000 nM and 500 to 2000 nM, respectively.

As for `Cc1ccc(S(=O)(=O)N2CCCC(CNC(=O)OC(C)(C)C)C2)cc1-c1cnc2c(N)nc(C(F)(F)F)cn12` (stereo not shown) [Example 512, tert-Butyl ((1-((3-(8-amino-6-(trifluoromethyl)imidazo[1,2-a]pyrazin-3-yl)-4-methylphenyl)sulfonyl)piperidin-3-yl)methyl)carbamate], the results for the IC50 in experiment [2] and in experiment [3] were more than 2000 nM and less than 100 nM, respectively.

With `Cc1ccc(S(=O)(=O)N2CCCC(CNC(=O)CN(C)C)C2)cc1-c1cnc2c(N)nc(C(F)(F)F)cn12` (stereo not shown) [Example 514, N-((1-((3-(8-Amino-6-(trifluoromethyl)imidazo[1,2-a]pyrazin-3-yl)-4-methylphenyl)sulfonyl)piperidin-3-yl)methyl)-2-(dimethylamino)acetamide], the IC50 in experiment [2] is 500 to 2000 nM; in experiment [3], 100 to 500 nM.

Regarding `Cc1ccc(S(=O)(=O)N2CCCC(NC(=O)OC(C)(C)C)C2)cc1-c1cnc2c(N)nc(C(F)(F)F)cn12` (stereo not shown) [Example 515, tert-Butyl (1-((3-(8-amino-6-(trifluoromethyl)imidazo[1,2-a]pyrazin-3-yl)-4-methylphenyl)sulfonyl)piperidin-3-yl)carbamate], the values for the IC50 in experiment [2] and in experiment [3] were more than 2000 nM and 100 to 500 nM, respectively.

On to `Cc1ccc(S(=O)(=O)N2CCCC(NC(=O)C3CC3)C2)cc1-c1cnc2c(N)nc(C(F)(F)F)cn12` (stereo not shown) [Example 517, N-(1-((3-(8-Amino-6-(trifluoromethyl)imidazo[1,2-a]pyrazin-3-yl)-4-methylphenyl)sulfonyl)piperidin-3-yl)cyclopropanecarboxamide trifluoroacetate], for which the IC50 in experiment [2] is 500 to 2000 nM; in experiment [3], less than 100 nM.
